Laboratory results reported in PMC9658223, “New, Eco-Friendly Method for Synthesis of 3-Chlorophenyl and 1,1′-Biphenyl Piperazinylhexyl Trazodone Analogues with Dual 5-HT1A/5-HT7 Affinity and Its Antidepressant-like Activity” (Molecules, 2022).
Counter-ions that a name gives are not always drawn.

Legend:
[1] = target: T1, 5-HT7 receptor (Homo sapiens, UniProt P34969); assay: LANCE Ultra cAMP assay, inhibition of 5-CT-induced cAMP in HEK-293 cells overexpressing 5-HT7bR; assay type: cell-based
T1 construct: gene HTR7; 5-HT7bR
T1 sequence (P34969 1-432): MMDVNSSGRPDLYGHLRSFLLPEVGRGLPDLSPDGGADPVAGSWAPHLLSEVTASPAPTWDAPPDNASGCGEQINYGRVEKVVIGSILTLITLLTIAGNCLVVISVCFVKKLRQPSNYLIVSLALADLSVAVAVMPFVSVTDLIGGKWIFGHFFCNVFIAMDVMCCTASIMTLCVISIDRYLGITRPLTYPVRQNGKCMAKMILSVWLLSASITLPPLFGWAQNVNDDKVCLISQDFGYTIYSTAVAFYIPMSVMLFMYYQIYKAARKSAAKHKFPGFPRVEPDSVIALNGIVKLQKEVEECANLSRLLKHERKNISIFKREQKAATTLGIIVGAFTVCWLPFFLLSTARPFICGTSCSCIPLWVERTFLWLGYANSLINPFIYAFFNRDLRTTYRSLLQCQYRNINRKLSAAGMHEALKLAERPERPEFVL
Description: LANCE Ultra cAMP assay, inhibition of 5-CT-induced cAMP in HEK-293 cells overexpressing 5-HT7bR on 5-HT7 receptor | Both behaved as 5-HT7R antagonists | Both behaved as 5-HT7R antagonists, while 7b·HCl additionally acted as a 5-HT1AR antagonist in a cAMP assay.

[2] = target: CYP3A4 (Homo sapiens, UniProt P08684); assay: CYP3A4 P450-Glo luminescence assay (Promega), single concentration […]; assay type: biochemical
Sequence of CYP3A4 (P08684 2-503): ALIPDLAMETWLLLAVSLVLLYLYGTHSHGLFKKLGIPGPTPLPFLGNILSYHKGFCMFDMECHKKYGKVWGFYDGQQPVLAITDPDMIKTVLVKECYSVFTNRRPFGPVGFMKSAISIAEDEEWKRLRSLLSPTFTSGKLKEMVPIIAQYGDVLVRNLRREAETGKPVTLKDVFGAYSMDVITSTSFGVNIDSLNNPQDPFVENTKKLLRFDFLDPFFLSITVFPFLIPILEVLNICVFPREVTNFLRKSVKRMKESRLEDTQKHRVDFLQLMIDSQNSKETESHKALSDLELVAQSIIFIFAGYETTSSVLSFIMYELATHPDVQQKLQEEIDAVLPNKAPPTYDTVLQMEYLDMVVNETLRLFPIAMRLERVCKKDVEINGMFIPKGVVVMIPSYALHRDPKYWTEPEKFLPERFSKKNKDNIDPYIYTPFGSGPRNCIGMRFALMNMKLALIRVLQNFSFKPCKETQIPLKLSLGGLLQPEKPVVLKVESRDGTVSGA

[3] = target: T2, 5-HT1A receptor (Homo sapiens, UniProt P08908); assay: LANCE Ultra cAMP functional antagonist assay in HEK293 cells; assay type: cell-based
T2 construct: gene HTR1A
T2 sequence (P08908 1-422): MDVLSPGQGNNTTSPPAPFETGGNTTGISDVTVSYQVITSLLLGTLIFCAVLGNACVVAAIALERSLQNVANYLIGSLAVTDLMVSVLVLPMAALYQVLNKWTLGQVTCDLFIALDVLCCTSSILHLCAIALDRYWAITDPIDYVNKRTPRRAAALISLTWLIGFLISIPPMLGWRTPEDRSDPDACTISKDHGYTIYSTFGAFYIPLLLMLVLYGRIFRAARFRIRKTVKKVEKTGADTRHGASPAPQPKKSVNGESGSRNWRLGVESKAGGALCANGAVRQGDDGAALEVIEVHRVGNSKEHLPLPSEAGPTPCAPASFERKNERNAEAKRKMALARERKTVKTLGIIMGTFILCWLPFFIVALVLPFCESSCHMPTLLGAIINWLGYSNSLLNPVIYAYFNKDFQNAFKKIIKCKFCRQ
Description: LANCE Ultra cAMP functional antagonist assay in HEK293 cells on 5-HT1A receptor | 7b·HCl additionally acted as a 5-HT1AR antagonist in a cAMP assay

Row | Kb [1] [nM] | inhibition at 10 µM [2] [%] | Kb [3] [nM] | Structure (SMILES)
1 | 18 | 35 | 12 | O=c1n(CCCCCCN2CCN(c3ccccc3-c3ccccc3)CC2)nc2ccccn12 [7b·HCl, 2-(6-(4-([1,1′-biphenyl]-2-yl)piperazin-1-yl)hexyl)-[1,2,4]triazolo[4,3-a]pyridin-3(2H)-one hydrochloride]
2 | 87 | – | – | O=c1n(CCCCCCN2CCN(c3cccc(Cl)c3)CC2)nc2ccccn12 [7a·HCl, 2-(6-(4-(3-chlorophenyl)piperazin-1-yl)hexyl)-[1,2,4]triazolo[4,3-a]pyridin-3(2H)-one hydrochloride]
